Source: patent publication US11273193B2, “Synergistic composition as a promoter of autophagy” (GIULIANI S.P.A., priority 2017, dated 2022)
“Also recorded” adds a separate entry of the source.

Columns and labels:
Assay type in all cases: cell-based, human
SQSTM1/p62 = experiment: Live fluorescent microscopy of p62-RFP dots (autophagy-mediated p62 degradation) in U2OS cells; settings: U2OS cells transduced with p62-RFP; FIG. 2
Description: U2OS cells were seeded 3000 cells/well in 48-well plates, No. 1.5 Uncoated Coverslip, 6 mm glass diameter, previously coated with gelatin solution, and transduced with 0.2 ul di baculovirus/10 000 cells containing a chimeric protein p62-Red Fluorescent Protein (p62-RFP). At 48 h post-transduction the cells were treated with Spermidine, Biotin, Galeopsis, or vehicle and monitored for 24 h using NIKON Live Cell Imaging microscopy.
Because LC3-RFP dots may also accumulate upon a blockade of the autophagic flux, the autophagy-dependent degradation of the SQSTM1/p62 protein (Klionsky D J, Abdelmohsen K, Abe A, Abedin M J, Abeliovich H, Acevedo Arozena A, et al. Guidelines for the use and interpretation of assays for monitoring autophagy. Autophagy. 2016; 12(1):1-222) was thus monitored. p62 served as a link between LC3 and ubiquitinated substrates (Pankiv S, Clausen T H, Lamark T, Brech A, Bruun J-A, Outzen H, et al. p62/SQSTM1 binds directly to Atg8/LC3 to facilitate degradation of ubiquitinated protein aggregates by autophagy. Journal of Biological Chemistry. […]
Accordingly, the effects of biotin and Galeopsis on autophagy-mediated p62 degradation was evaluated analyzing the number of p62-RFP autophagosomes by live fluorescent microscopy. […] Then, p62 fluorescent dots were monitored upon addition of biotin, Galeopsis, spermidine or vehicle.

lipidated LC3 (LC3-II) = experiment: Immunoblot of lipidated LC3 (LC3-II) in U2OS cells, Example 14; settings: 100 μM, 6 h, normalized by ACTIN, FIG. 3
Description: (§1) The levels of lipidated LC3 and SQSTM1 in human U2OS cells treated with equimolar doses of N1-methylspermidine and spermidine were evaluated. […] Specifically cultured human U2OS cells were treated 6 h with vehicle or equimolar doses of spermidine and N^1-methylspermidine (100 μM). The levels of lipidated LC3 (LC3-II) and SQSTM1 were then assessed by immunoblotting analysis as in example 8 with specific antibody. Actin signals were adopted as a loading control. Densitometry analysis of protein signals is reported as relative protein levels normalized by ACTIN. Vehicle sample value was set to 1. Shown as mean±SEM., n=3. *P<0.05 and **P<0.01, compounds versus vehicle.

LC3 = experiment: Live fluorescent microscopy of LC3-RFP dots (autophagosome accumulation) in U2OS cells; settings: U2OS cells transduced with LC3-RFP, 6 h; biotin 200 ng/ml, Galeopsis dry extract 100 ng/ml, spermidine 10 μM; FIG. 1
Source text: In order to evaluate whether biotin and/or Galeopsis segetum extract may affect autophagy, the inventors monitored the accumulation of autophagosome in cultured U2OS cells by live fluorescent microscopy (Klionsky D J, Abdelmohsen K, Abe A, Abedin M J, Abeliovich H, Acevedo Arozena A, et al. Guidelines for the use and interpretation of assays for monitoring autophagy. Autophagy. 2016; 12(1):1-222). Thus, cells were trasduced with construct containing the autophagy protein, LC3, fused with a Red Fluorescent Protein (RFP). Then, accumulation of fluorescent LC3 dots upon addition of biotin (200 ng/ml) or Galeopsis dry extract (100 ng/ml) was monitored by acquiring images every 30 min for 6 h. Spermidine (10 μM) was adopted as a positive control of an autophagy inducer compound (Pietrocola F, Lachkar S, Enot D, Niso-Santano M, Bravo-San Pedro J, Sica V, et al. Spermidine induces autophagy by inhibiting the acetyltransferase EP300. Cell Death & Differentiation. 2015; 22(3):509-16).
Both biotin and Galeopsis segetum dry extract produced a similar accumulation of LC3-red dots.

SQSTM1 = experiment: Immunoblot of SQSTM1 in U2OS cells, Example 14; settings: 100 μM, 6 h, normalized by ACTIN, FIG. 3
Description: as §1

p62/SQSTM1 = experiment: Immunoblot analysis of p62 protein levels in U2OS cells; settings: immunoblot normalized to GAPDH, spermidine 0.5 μM, biotin 19.91 ng/ml, Galeopsis 7.9 ng/ml
Description: U2OS cells were grown to 80% confluence in Dulbecco Modified Eagle's Medium High Glucose (4.5 g/ID-Glucose) containing 4 mM L-glutamine, 10% fetal bovine serum (FBS) and treated with Spermidine (Lot. 2010112716), Galeopsis segetum (IDN 6781), Biotin (Lot. 2014124160) or their combinations. Protein samples were extracted in RIPA buffer as previously reported (De Mei C, Ercolani L, Parodi C, Veronesi M, Vecchio C L, Bottegoni G, et al. Dual inhibition of REV-ERBβ and autophagy as a novel pharmacological approach to induce cytotoxicity in cancer cells. Oncogene. 2015; 34(20):2597-608). p62/SQSTM1 and GAPDH levels were analyzed with anti-p62/SQSTM1 and anti-GADPH specific antibodies. Immunoblot experiments were performed in TBS-T buffer containing 5% bovine serum albumin (BSA). […] and anti-GAPDH antibodies were diluted 1:1000 and 1:50000, respectively. Complementary HPR-conjugated secondary antibodies were diluted 1:10000. Upon reaction with ECL Western blotting detection reagent, chemiluminescent signals were acquired with a LAS-4000 luminescent image analyzer and optical density of specific band signal was calculated with Photoshop image analysis software. GAPDH was adopted as a loading control and GAPDH signals were used to normalize p62 protein levels among different samples.
Immunoblots were repeated at least 4 times in order to express value as mean±SEM. […]

Row | SMILES | reduction of p62-RFP fluorescent dots / signals versus vehicle (SQSTM1/p62) | levels of the lipidated LC3-II form compared with vehicle (lipidated LC3 (LC3-II)) | accumulation of fluorescent LC3 dots (autophagosomes) (LC3) | autophagy-mediated degradation of SQSTM1 compared with vehicle (SQSTM1) | Percentage of p62 reduction versus vehicle (% ± SEM) (p62/SQSTM1) [%]
1 | NCCCCNCCCN [Spermidine, N′-(3-aminopropyl)butane-1,4-diamine] | markedly reduced p62 fluorescent dots and fluorescent signals | increased the levels of the lipidated LC3-II form | marked accumulation of LC3 fluorescent dots | stimulated autophagy-mediated degradation of SQSTM1 | 5 ± 0.11
2 | CNCCCNCCCCN [N1-methylspermidine] |  | increased the levels of the lipidated LC3-II form |  | stimulated autophagy-mediated degradation of SQSTM1 | 
3 | O=C(O)CCCC[C@@H]1SC[C@@H]2NC(=O)N[C@@H]21 [Biotin, 5-[(3aS,4S,6aR)-2-oxohexahydro-1H-thieno[3,4-d]imidazole-4-yl]pentanoic acid] | drastic reduction of p62-RFP dots; also recorded: strong reduction of p62 fluorescent signals |  | marked accumulation of fluorescent LC3 dots |  | 21 ± 1.5
